Among the data in patent US9932340B2, “Substituted indoles” (AbbVie Inc., priority 2014, dated 2018) are IC50 values, retold here.

Molecules are shown by their SMILES.

SUV420H1 enzyme, sequence (Q4FZB7 whole entry): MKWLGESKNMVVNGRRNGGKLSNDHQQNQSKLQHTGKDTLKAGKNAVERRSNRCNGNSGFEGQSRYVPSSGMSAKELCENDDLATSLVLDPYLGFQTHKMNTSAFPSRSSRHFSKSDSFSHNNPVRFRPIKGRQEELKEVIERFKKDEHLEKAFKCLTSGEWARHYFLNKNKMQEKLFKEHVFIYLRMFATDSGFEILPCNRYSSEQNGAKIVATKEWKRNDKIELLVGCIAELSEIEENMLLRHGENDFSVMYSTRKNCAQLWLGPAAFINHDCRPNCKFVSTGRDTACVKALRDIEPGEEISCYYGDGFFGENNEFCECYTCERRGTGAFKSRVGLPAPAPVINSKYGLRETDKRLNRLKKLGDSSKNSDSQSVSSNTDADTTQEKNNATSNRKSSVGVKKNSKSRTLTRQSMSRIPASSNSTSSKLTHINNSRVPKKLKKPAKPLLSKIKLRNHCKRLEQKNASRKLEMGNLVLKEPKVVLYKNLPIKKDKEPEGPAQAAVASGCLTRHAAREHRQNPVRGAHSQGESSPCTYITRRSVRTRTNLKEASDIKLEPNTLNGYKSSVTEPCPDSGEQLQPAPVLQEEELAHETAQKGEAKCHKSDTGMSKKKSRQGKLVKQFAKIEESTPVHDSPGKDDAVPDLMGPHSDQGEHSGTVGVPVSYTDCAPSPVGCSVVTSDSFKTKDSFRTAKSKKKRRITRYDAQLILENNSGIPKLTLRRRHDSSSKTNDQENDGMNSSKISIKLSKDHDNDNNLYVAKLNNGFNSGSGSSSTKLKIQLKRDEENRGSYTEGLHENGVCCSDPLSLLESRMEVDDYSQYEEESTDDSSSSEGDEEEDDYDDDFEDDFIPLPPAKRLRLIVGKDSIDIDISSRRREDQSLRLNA

For the assay, the target named is SUV420H1 enzyme (Homo sapiens, UniProt Q4FZB7). The assay is described as follows: TR-FRET SAH SUV420H1 enzyme inhibition assay. In kind it is biochemical. The conditions noted are these: Histone Peptide H4(8-30)me1 and SAM, overnight at room temp, TR-FRET detection of SAH, read-out: TR-FRET SAH_SUV420H1 IC50. A digest of the protocol:
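SUV420H1 (90 nM) preincubated 30 min with compound (3-fold dilutions, 50 to 0.00075 μM), then H4(8-30)me1 peptide 5 nM and SAM 4 nM added, overnight at room temp. SAH product detected by TR-FRET with Tb anti-SAH antibody and Oregon Green-SAH in RIPA buffer, 4 h; IC50 from Hill fit, asymptotes fixed 0-100%.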
(TR-FRET usually uses a lanthanide donor and a delayed reading to cut background.)
As to `Nc1ncnc2c1ncn2Cc1cc(Cl)cc2cc(CNCc3cc(Cl)cc(Cl)c3)[nH]c12` [Example 212, 9-[(5-chloro-2-{[(3,5-dichlorobenzyl)amino]methyl}-1H-indol-7-yl)methyl]-9H-purin-6-amine], the IC50 (in general, the midpoint of a concentration-inhibition curve) was determined as 3640 nM.

As to `Cc1nnccc1C(=O)NCc1cc2cc(C3=CCN(C(=O)OC(C)(C)C)CC3)cc(Cn3cnc4c(N)ncnc43)c2[nH]1` [Example 204, tert-butyl 4-{7-[(6-amino-9H-purin-9-yl)methyl]-2-({[(3-methylpyridazin-4-yl)carbonyl]amino}methyl)-1H-indol-5-yl}-3,6-dihydropyridine-1(2H)-carboxylate], the IC50 was 53.2 nM.

In the case of `Nc1ncnc2c1ncn2Cc1cc(Cl)cc2cc(CNC(=O)c3cnc4[nH]cnc4c3)[nH]c12` [Example 333, N-({7-[(6-amino-9H-purin-9-yl)methyl]-5-chloro-1H-indol-2-yl}methyl)-3H-imidazo[4,5-b]pyridine-6-carboxamide], the IC50 was determined as 1700 nM.

`Nc1ncnc2c1ncn2Cc1cc(Cl)cc2cc(CNC(=O)c3cnc4ccsc4c3)[nH]c12` [Example 337, N-({7-[(6-amino-9H-purin-9-yl)methyl]-5-chloro-1H-indol-2-yl}methyl)thieno[3,2-b]pyridine-6-carboxamide]: the IC50 stood at 98.5 nM.

As for `Cc1cccc(-c2ccc(Cn3cnc4c(N)ncnc43)c3[nH]c(CN)cc23)c1` [Example 76, 9-{[2-(aminomethyl)-4-(3-methylphenyl)-1H-indol-7-yl]methyl}-9H-purin-6-amine], the IC50 came to 1330 nM.

Consider `C=Cc1ccc(Cn2cnc3c(N)ncnc32)c2[nH]c(CN)cc12` [Example 63, 9-{[2-(aminomethyl)-4-ethenyl-1H-indol-7-yl]methyl}-9H-purin-6-amine], for which the IC50 stood at 4030 nM.

On to `Cn1cc(-c2ccc(Cn3cnc4c(N)ncnc43)c3[nH]c(CN)cc23)cn1` [Example 68, 9-{[2-(aminomethyl)-4-(1-methyl-1H-pyrazol-4-yl)-1H-indol-7-yl]methyl}-9H-purin-6-amine], for which the IC50 turned out to be 972 nM.

Regarding `Nc1ncnc2c1ncn2Cc1cc(Cl)cc2cc(CNC(=O)c3ccn[nH]3)[nH]c12` [Example 142, N-({7-[(6-amino-9H-purin-9-yl)methyl]-5-chloro-1H-indol-2-yl}methyl)-1H-pyrazole-5-carboxamide], the IC50 stood at 9480 nM.

For the molecule `Cc1nnccc1C(=O)NCc1cc2cc(C3=CCC(F)(F)CC3)cc(Cn3cnc4c(N)ncnc43)c2[nH]1` [Example 201, N-({7-[(6-amino-9H-purin-9-yl)methyl]-5-(4,4-difluorocyclohex-1-en-1-yl)-1H-indol-2-yl}methyl)-3-methylpyridazine-4-carboxamide], the IC50 came out at 58.9 nM.

Take `Nc1ncnc2c1ncn2Cc1cc(Cl)cc2cc(CNC(=O)N3CCC(c4ccccc4F)C3)[nH]c12` (stereo not shown) [Example 319, N-({7-[(6-amino-9H-purin-9-yl)methyl]-5-chloro-1H-indol-2-yl}methyl)-3-(2-fluorophenyl)pyrrolidine-1-carboxamide]: the concentration for half-maximal inhibition (IC50) turned out to be 3390 nM.

Consider `Nc1ncnc2c1ncn2Cc1cc(Cl)cc2cc(CNC(=O)Cc3cccc(Cl)c3)[nH]c12` [Example 252, N-({7-[(6-amino-9H-purin-9-yl)methyl]-5-chloro-1H-indol-2-yl}methyl)-2-(3-chlorophenyl)acetamide], for which the half-maximal inhibitory concentration (IC50) is 2140 nM.

As to `N#Cc1ccc(C(=O)NCc2cc3cc(Cl)cc(Cn4cnc5c(N)ncnc54)c3[nH]2)c(F)c1` [Example 284, N-({7-[(6-amino-9H-purin-9-yl)methyl]-5-chloro-1H-indol-2-yl}methyl)-4-cyano-2-fluorobenzamide], the IC50 came out at 90.8 nM.

Regarding `Cn1nc(C(=O)NCc2cc3cc(Cl)cc(Cn4cnc5c(N)ncnc54)c3[nH]2)c2c1CCC2` [Example 191, N-({7-[(6-amino-9H-purin-9-yl)methyl]-5-chloro-1H-indol-2-yl}methyl)-1-methyl-1,4,5,6-tetrahydrocyclopenta[c]pyrazole-3-carboxamide], the IC50 was 2980 nM.

Turning to `Cc1ccccc1-c1cc(Cn2cnc3c(N)ncnc32)c2[nH]c(CN)cc2c1` [Example 32, 9-{[2-(aminomethyl)-5-(2-methylphenyl)-1H-indol-7-yl]methyl}-9H-purin-6-amine], the IC50 turned out to be 3330 nM.

On to `Nc1ncnc2c1ncn2Cc1cc(Cl)cc2cc(CNC(=O)c3cccc(O)n3)[nH]c12` [Example 197, N-({7-[(6-amino-9H-purin-9-yl)methyl]-5-chloro-1H-indol-2-yl}methyl)-6-hydroxypyridine-2-carboxamide], for which the IC50 came out at 1070 nM.

For `NCc1cc2cc(-c3cccc(N4CCOCC4)c3)cc(Cn3cnc4c(N)ncnc43)c2[nH]1` [Example 52, 9-({2-(aminomethyl)-5-[3-(morpholin-4-yl)phenyl]-1H-indol-7-yl}methyl)-9H-purin-6-amine], the IC50 is 244 nM.

For `Cc1noc(C)c1C(=O)NCc1cc2cc(-c3cccc(C(=O)N(C)C)c3)cc(Cn3cnc4c(N)ncnc43)c2[nH]1` [Example 177, N-({7-[(6-amino-9H-purin-9-yl)methyl]-5-[3-(dimethylcarbamoyl)phenyl]-1H-indol-2-yl}methyl)-3,5-dimethyl-1,2-oxazole-4-carboxamide], the IC50 stood at 106 nM.

Consider `Cc1cc(C(=O)NCc2cc3cc(Cl)cc(Cn4cnc5c(N)ncnc54)c3[nH]2)n(C)n1` [Example 183, N-({7-[(6-amino-9H-purin-9-yl)methyl]-5-chloro-1H-indol-2-yl}methyl)-1,3-dimethyl-1H-pyrazole-5-carboxamide], for which the IC50 was 1780 nM.

For `Cc1cc(C#N)ccc1C(=O)NCc1cc2cc(C3=CCC(F)(F)CC3)cc(Cn3cnc4c(N)ncnc43)c2[nH]1` [Example 306, N-({7-[(6-amino-9H-purin-9-yl)methyl]-5-(4,4-difluorocyclohex-1-en-1-yl)-1H-indol-2-yl}methyl)-4-cyano-2-methylbenzamide], the IC50 amounted to 56.4 nM.

With `CS(=O)(=O)c1ccc(CNCc2cc3cc(Cl)cc(Cn4cnc5c(N)ncnc54)c3[nH]2)cc1F` [Example 264, 9-{[5-chloro-2-({[3-fluoro-4-(methylsulfonyl)benzyl]amino}methyl)-1H-indol-7-yl]methyl}-9H-purin-6-amine], the IC50 came to 3230 nM.

With `Cc1ccc(-c2ccc(Cn3cnc4c(N)ncnc43)c3[nH]c(CN)cc23)cc1` [Example 75, 9-{[2-(aminomethyl)-4-(4-methylphenyl)-1H-indol-7-yl]methyl}-9H-purin-6-amine], the IC50 amounted to 890 nM.

For `Nc1ncnc2c1ncn2Cc1cc(Cl)cc2cc(CNC(=O)c3ccc4[nH]ncc4c3F)[nH]c12` [Example 350, N-({7-[(6-amino-9H-purin-9-yl)methyl]-5-chloro-1H-indol-2-yl}methyl)-4-fluoro-1H-indazole-5-carboxamide], the IC50 is 2740 nM.

As to `Nc1ncnc2c1ncn2Cc1cc(Cl)cc2cc(CNC(=O)Cc3ccccc3F)[nH]c12` [Example 256, N-({7-[(6-amino-9H-purin-9-yl)methyl]-5-chloro-1H-indol-2-yl}methyl)-2-(2-fluorophenyl)acetamide], the IC50 is more than 50000 nM.

Regarding `Nc1ncnc2c1ncn2Cc1cccc2cc[nH]c12` [Example 5, 9-(1H-indol-7-ylmethyl)-9H-purin-6-amine], the IC50 turned out to be 13900 nM.

As for `Nc1ncnc2c1ncn2Cc1cc(Cl)cc2cc(C(N)Cc3ccccc3)[nH]c12` (stereo not shown) [Example 206, 9-{[2-(1-amino-2-phenylethyl)-5-chloro-1H-indol-7-yl]methyl}-9H-purin-6-amine], the IC50 was 1050 nM.
